Values quoted from earlier work as cited in paper PMC11822664, “First‐In‐Human Dose Finding Study of Venadaparib (IDX‐1197), a Potent and Selective PARP Inhibitor, in Patients With Advanced Solid Tumors” (Cancer Medicine, 2025).

Experiments:
PARP = conditions: olaparib phase I trial ref 22; cited from earlier work
[1] = tested on: patients with advanced ovarian cancer; conditions: cited from earlier work
[2] = advanced ovarian cancer with ≥ 2 prior systemic treatments ref 33

## O=C(c1cc(Cc2n[nH]c(=O)c3ccccc23)ccc1F)N1CCN(C(=O)C2CC2)CC1 [olaparib]
PARP
  Dose from which clinical benefit started: ≥ 100 mg twice daily (BID)
[1]; advanced ovarian cancer ref 33
  Anemia incidence: 46%
  Neutropenia incidence: 24%
[1]; [2]
  Nausea incidence: approximately 76%
  Vomiting incidence: ~40%
